Data reported in patent US20250000859A1, “USE OF GCN2 INHIBITORS IN TREATING CANCER” (Alesta Therapeutics BV, priority 2021, published 2025).
Where two headings read alike, the source gives them in different places.

Experiments:
[1] = tested on: Renca, CT26, MC38, B16F10 tumor cells; experiment: In vivo tumor models, tumor volume (Example J); design: species or system BALB/c or C57BL/6 mice; settings: for inhibition in tumor volume compared to control: Compound 1: 30 mg/kg p.o. BID, Compound 2: 20 mg/kg p.o. BID, endpoint day 11-20 depending on model
Experimental: Effect of GCN2 inhibition on in vivo xenograft tumor models of various ASS1 low cancer models was evaluated following treatment with compound 1, compound 2, or vehicle control. Briefly, 1,000,000 tumor cells with a total volume of 100 μl were injected into the rear flank region of 6-8 week old BALB/c or C57BL/6 female mice. The following tumor cell lines were tested: renica (renal adenocarcinoma), CT26 (colon cancer), MC 38 (colon adenocarcinoma), B16F10 (melanoma) When tumors reached a size of approximately […], mice were treated orally (PBS, 10 μl/g, i.p., twice weekly (BIW); Compound 1: 30 mg/kg, 10 μl/g, p.o., twice daily (BID); or Compound 2: 20 mg/kg, 10 μl/g, p.o., BID). Tumor volumes were measured every 3-4 days. Endpoint measurements as presented were measured at day 20 (Renca), day 14 (CT26), day 17 (MC38), and day 11 (B16F10).

A498 (ASS1low) cells = experiment: Relative cell viability, Nuclear-ID Red / Annexin V staining (Example E); format: cell-based; settings: 16 μM arginine, 4 days
Experimental: (§1) To assess the effectiveness of Compound 1 and Compound 2: A^498 (ASS1low) and 769-P (ASS1high) cells were seeded at a density of 2000 cells/well in 96-well plates in RPMI medium with 16 μM arginine, 1 g/L glucose, 2 mM L-glutamine, and 10% FCS and allowed to adhere overnight.
(§2) Cells were then treated with increasing amounts of the indicated compounds for 4 days. Afterward, cell viability was determined by staining the nuclei of the living cells with NUCLEAR-IDR Red DNA stain (Enzo Life Sciences) and the apoptotic/death cells with Annexin V CF488A (Biotium) and scanning the plates with an IncuCyte S3 instrument. Viable cells were classified as Nuclear-ID Red high and Annexin V CF488A low and relative viability was expressed as a percentage of the total number of cells/well.

769-P (ASS1high) cells = experiment: as above; format: cell-based; settings: 16 μM arginine, 4 days
Experimental: as §1, §2

HT29 cells [2] = experiment: EdU incorporation (Example I); format: cell-based; settings: HT29 cells (low ASS1), arginine 6.25-100 μM
Experimental: (§3) EdU incorporation levels of cancer cell lines was evaluated following treatment with compound 1, compound 2, compound 3, or vehicle control (0.1% DMSO). Briefly, HT29 and HCT116 cells were seeded at 2,500 cells/well in 96 well plates in 100 μl SILAC DMEM flex media without phenol red, supplemented with 10% dialyzed fetal bovine serum (dFBS), 1 g/l glucose, 2 mM glutamine, 220 μM Lysine, and various concentrations of arginine (6.25 μM, 12.5 μM, 25 μM, and 100 μM). The cells were put in a humidified incubator at 37° C. for 24 hours. The next day compounds were added to the cells at a concentration of […]. At day 3, cells were incubated with 10 μM EdU for 24 hours. The next day EdU positive cells were labeled using the Click-it reaction cocktail per manufacturing protocol using Amplex UltraRed Dye. Fluorescence was measured using a microplate reader using filter sets appropriate for Amplex™ UntraRed reagent (ex 568 nm and em 585 nm).

HCT116 cells [3] = experiment: EdU incorporation (Example I); format: cell-based; settings: HCT116 cells (high ASS1), arginine 6.25-100 μM
Experimental: as §3

HT29 spheroids = experiment: Tumor spheroid growth, live-cell imaging (Example C); format: cell-based; settings: ASS1-low HT29 spheroids, 0-20 μM, up to 120 hours
Experimental: (§4) The growth of tumor spheroids was evaluated following treatment of cells with Compound 1, Compound 2. Briefly, HT29 or HCT116 cells were seeded at 5,000 cells/well in ultra-low attachment round-bottom 96-well plates, in 100 μL SILAC DMEM Flex media without phenol red, supplemented with 10% fetal bovine serum (FBS), 1 g/L glucose, 2 mM glutamine, 220 μM lysine, and 64 μM arginine. The plates were centrifuged for 10 minutes at 125×g and put in a humidified incubator at 37° C. for 3 days before the onset of the experiment to allow spheroids to form.
(§5) Three days after seeding, 0-20 μM Compound 1, 0-20 μM Compound 2, or […] vehicle control (0.1% DMSO), were added together with the Nuclear-ID Red DNA Stain (1:100,000; ENZO Life Sciences) to detect live cells. Plates were placed in live-cell imaging and analysis platform (e.g., IncuCyte ZOOM®; 15 Essenbio) set up in a humidified incubator at 37° C. and scanned every 4 hours for up to 120 hours, at 10× magnification, to determine the relative spheroid size and cell death. Experiments were performed in quadruplicate and analyzed using live-cell imaging and analysis software (e.g., IncuCyte ZOOM® 2018A software; Essenbio).

HCT116 spheroids = experiment: as above; format: cell-based; settings: ASS1-high HCT116 spheroids, 0-20 μM, up to 120 hours
Experimental: as §4, §5

HT29 cells [4] = experiment: Growth of colonies/spheroids in soft agar, 5 days (Example G); format: cell-based; settings: HT29 cells (ASS1 low), 64 μM arginine, read-out: IC50, growth inhibition
Experimental: (§6) The growth of tumor spheroids was evaluated following treatment with Compound 2. Briefly, HT29 cells were seeded at 2,000 cells/well and HCT116 cells were seeded at 1,000 cells/well in ultra-low attachment round bottom 96-well plates in soft agar with 100 μl SILAC DMEM flex media without phenol red, supplemented with 10% Dialyzed fetal bovine serum (dFBS), 1 g/l glucose, 2 mM glutamine, 220 μM Lysine, and 64 μM arginine. Various concentrations of compound 2 (1.37 nM, 4.11 nM, 12.3 nM, 37 nM, 111 nM, 333 nM, and 1000 nM) were added. Plates were placed in a humidified incubator at 37° C. and incubated for 5 days, allowing colonies to form. At endpoint, images were taken by light microscopy (3 images per well) and analyzed using ImageJ software.

HCT116 cells [5] = experiment: as above; format: cell-based; settings: Homo sapiens, HCT-116, 120 h, HCT116 cells (ASS1 high), 64 μM arginine, read-out: IC50, growth inhibition
Experimental: as §6

A498 cells = experiment: Cell viability, ATPlite luminescence (Example H); format: cell-based; settings: A498 cells (low ASS1)
Experimental: The viability of cancer cell lines was evaluated following treatment with compound 2. Briefly, 769P and A498 cells were seeded at 100-6,400 cells/well in 96 well plates in 100 μl SILAC DMEM flex media without phenol red, supplemented with 10% dialyzed fetal bovine serum (dFBS), 1 g/l glucose, 2 mM glutamine, 220 μM Lysine, and 64 μM arginine. The cells were put in a humidified incubator at 37° C. for 24 hours. The next day compounds were added at various concentrations. At the end of the experiment, ATPlite 1 Step™ (Perkin Elmer) solution was added to each well and shaken for 2 minutes. After incubation of 10 min in the dark, luminescence was recorded on a Envision Multimode Reader to determine cell viability.

Compound: COc1ncc(Cl)cc1S(=O)(=O)Nc1ccc(F)c(-c2ccc3nc(N)ncc3c2)c1F [Compound 1]
- reduction in tumor volume compared to control ([1]; 30 mg/kg p.o. BID, Renca, CT26, MC38, B16F10, FIG. 9A): 60-70%
- inhibition in tumor volume compared to control [1]: caused a significant inhibition in tumor volume compared to control
- relative cell viability (A498 (ASS1low) cells): significantly reduces relative cell viability in a dose-dependent manner
- relative cell viability (769-P (ASS1high) cells): did not significantly relative cell viability
- EdU labeling (HT29 cells [2]): cause significantly higher levels of EdU labeling
- EdU labeling (HCT116 cells [3]): have a smaller effect on EdU labeling
- spheroid growth compared to DMSO-treated spheroids (HT29 spheroids): significantly reduces spheroid growth in a dose-dependent manner
- spheroid growth (HCT116 spheroids): does not reduce spheroid growth

Compound: Nc1ncc2cc(-c3c(F)ccc(NS(=O)(=O)c4cc(Cl)ccc4Cl)c3F)ccc2n1 [Compound 2]
- inhibition in tumor volume compared to control [1]: caused a significant inhibition in tumor volume compared to control
- relative cell viability (A498 (ASS1low) cells): significantly reduces relative cell viability in a dose-dependent manner
- relative cell viability (769-P (ASS1high) cells): did not significantly relative cell viability
- EdU labeling (HT29 cells [2]): cause significantly higher levels of EdU labeling
- EdU labeling (HCT116 cells [3]): have a smaller effect on EdU labeling
- IC50 (HT29 cells [4]): 51.4 nM
- IC50 (HT29 cells [4]; Homo sapiens, HT-29, 120 h): 52.4 nM
- IC50 (HCT116 cells [5]): 1330 nM
- cell death (percent viability vs untreated cells) (A498 cells): resulted in a significant level of cell death
- spheroid growth compared to DMSO-treated spheroids (HT29 spheroids): significantly reduces spheroid growth in a dose-dependent manner
- spheroid growth (HCT116 spheroids): does not reduce spheroid growth

Compound: Nc1ncc(C#Cc2c(F)ccc(NS(=O)(=O)c3cc(Cl)cc(CO)c3Cl)c2F)cn1 [Compound 3]
- EdU labeling (HT29 cells [2]): cause significantly higher levels of EdU labeling
- EdU labeling (HCT116 cells [3]): have a smaller effect on EdU labeling
